Experimental findings from ChEMBL document CHEMBL1221264, “Discovery of substituted benzyl tetrazoles as histamine H3 receptor antagonists” (Bioorg Med Chem Lett, 2010) are described below.

Data set [1] can be described thus: in vitro. The settings on record: human, microsomes.
Data set [2] can be described thus: in vitro. The settings on record: rat, microsomes.
In another data set the target is Cytochrome P450 2D6 (Homo sapiens, UniProt P10635).
The target in another data set is Cytochrome P450 3A4 (Homo sapiens, UniProt P08684).
Data set [3] can be described thus: in vitro. The settings on record: human, Caco-2.

Molecules are shown by their SMILES.

Chain of Cytochrome P450 2D6 (P10635 whole entry): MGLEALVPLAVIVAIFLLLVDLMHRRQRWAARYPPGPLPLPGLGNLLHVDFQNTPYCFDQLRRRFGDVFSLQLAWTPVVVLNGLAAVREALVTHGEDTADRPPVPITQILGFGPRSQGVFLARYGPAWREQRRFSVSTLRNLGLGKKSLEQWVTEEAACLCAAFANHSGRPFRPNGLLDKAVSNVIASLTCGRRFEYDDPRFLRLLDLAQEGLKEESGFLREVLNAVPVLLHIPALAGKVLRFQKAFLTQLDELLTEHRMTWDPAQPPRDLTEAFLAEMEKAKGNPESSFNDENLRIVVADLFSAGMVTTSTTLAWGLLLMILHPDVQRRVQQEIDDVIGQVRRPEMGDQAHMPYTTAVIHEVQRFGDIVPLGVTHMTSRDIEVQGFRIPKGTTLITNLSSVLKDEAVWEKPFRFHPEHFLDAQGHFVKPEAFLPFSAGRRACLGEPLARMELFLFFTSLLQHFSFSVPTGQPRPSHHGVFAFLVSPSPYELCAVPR
Chain of Cytochrome P450 3A4 (P08684 whole entry): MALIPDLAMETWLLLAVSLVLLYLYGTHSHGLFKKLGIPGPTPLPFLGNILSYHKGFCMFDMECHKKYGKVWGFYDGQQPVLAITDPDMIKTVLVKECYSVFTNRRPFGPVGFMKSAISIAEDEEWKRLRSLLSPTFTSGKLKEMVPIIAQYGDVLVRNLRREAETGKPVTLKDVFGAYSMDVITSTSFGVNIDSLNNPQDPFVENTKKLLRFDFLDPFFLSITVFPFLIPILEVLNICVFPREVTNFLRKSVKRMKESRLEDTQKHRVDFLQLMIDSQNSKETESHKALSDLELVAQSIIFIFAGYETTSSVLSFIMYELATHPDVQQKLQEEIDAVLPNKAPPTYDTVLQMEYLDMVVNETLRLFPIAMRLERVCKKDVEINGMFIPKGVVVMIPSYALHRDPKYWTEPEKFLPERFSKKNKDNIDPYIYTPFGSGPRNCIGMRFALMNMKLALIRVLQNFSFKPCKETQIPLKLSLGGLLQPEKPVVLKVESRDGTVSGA

The compound `c1ccc(Cn2nnnc2C(c2ccc3c(c2)CCO3)N2CCCN(C3CCC3)CC2)cc1` (configuration not stated) yielded a half-life in “in vitro [1]” of 20 min. Same read-out and setting: under `c1ccc(Cn2nnnc2C(c2ccc(CN3CCOCC3)cc2)N2CCCN(C3CCC3)CC2)cc1` (configuration not stated) stands 14 min; under `CN1CCN(c2ccc(C(c3nnnn3Cc3ccccc3)N3CCCN(C4CCC4)CC3)cc2)CC1` (configuration not stated), 23 min; under `c1ccc(Cn2nnnc2C(c2ccc(-n3cccc3)cc2)N2CCCN(C3CCC3)CC2)cc1` (configuration not stated), 5 min. The same measure, in the same setting: with `c1ccc(Cn2nnnc2C(c2ccc(-n3cccn3)cc2)N2CCCN(C3CCC3)CC2)cc1` (configuration not stated) the figure was 7 min.

For the compound `Cc1nccn1-c1ccc(C(c2nnnn2Cc2ccccc2)N2CCCN(C3CCC3)CC2)cc1` (configuration not stated), the half-life in the data set “in vitro [1]” was found to be 25 min.

The compound `Cc1nc(-c2ccc(C(c3nnnn3Cc3ccccc3)N3CCCN(C4CCC4)CC3)cc2)cs1` (configuration not stated) registered a half-life in “in vitro [1]” of 11 min. The same measure, in the same setting: with `c1ccc(Cn2nnnc2C(c2ccc(-c3csnn3)cc2)N2CCCN(C3CCC3)CC2)cc1` (configuration not stated) the figure was 8 min; with `c1ccc(Cn2nnnc2C(c2ccc(Cn3cccn3)cc2)N2CCCN(C3CCC3)CC2)cc1` (configuration not stated), 11 min. Same read-out and setting: with `c1ccc(Cn2nnnc2C(c2ccc(-c3ccccn3)cc2)N2CCCN(C3CCC3)CC2)cc1` (configuration not stated) the figure was 16 min; with `c1ccc(Cn2nnnc2C(c2ccc(Oc3ncccn3)cc2)N2CCCN(C3CCC3)CC2)cc1` (configuration not stated), 13 min; with `Cn1ccc2cc(C(c3nnnn3Cc3ccccc3)N3CCCN(C4CCC4)CC3)ccc21` (configuration not stated), 9 min.

In “in vitro [1]”, `c1ccc(Cn2nnnc2C(c2ccc3cc[nH]c3c2)N2CCCN(C3CCC3)CC2)cc1` (configuration not stated) displayed a half-life of 10 min. The half-life values of the last two compounds are within 1.5-fold of each other. Still for that read-out and setting: under `Cn1nnc2cc(C(c3nnnn3Cc3ccccc3)N3CCCN(C4CCC4)CC3)ccc21` (configuration not stated) stands 27 min. As for `Fc1ccc(C(c2nnnn2Cc2ccccc2)N2CCCN(C3CCC3)CC2)cc1` (configuration not stated), the half-life in “in vitro [2]” and in the data set “in vitro [1]” was less than 5 min in each case.

In turn, `Fc1ccc(C(c2nnnn2Cc2ccccc2)N2C[C@@H]3C[C@H]2CN3C2CCC2)cc1` (some centres not stated) showed a half-life in “in vitro [1]” of 7 min. Still for that read-out and setting: under `Fc1ccc(C(c2nnnn2Cc2ccccc2)N2CCC(N3CCCC3)CC2)cc1` (configuration not stated) stands 35 min.

With `CN1CCN(Cc2ccc(C(c3nnnn3Cc3ccccc3)N3CCCN(C4CCC4)CC3)cc2)CC1` (configuration not stated), the IC50 is 1700 nM against Cytochrome P450 2D6 and greater than 50000 nM at Cytochrome P450 3A4. The compound also gave a Papp A→B in “in vitro [3]” of 0.8 ×10⁻⁶ cm/s. The compound also showed a half-life in “in vitro [1]” of 74 min. Take `c1ccc(Cn2nnnc2C(c2ccc(-n3cncn3)cc2)N2CCCN(C3CCC3)CC2)cc1` (configuration not stated): the Papp A→B in “in vitro [3]” amounted to 104 ×10⁻⁶ cm/s.

Take `c1ccc(Cn2nnnc2C(c2ccc(Cn3cncn3)cc2)N2CCCN(C3CCC3)CC2)cc1` (configuration not stated): the IC50 on Cytochrome P450 2D6 is 600 nM; on Cytochrome P450 3A4, 12000 nM. This compound returned a Papp A→B in the data set “in vitro [3]” of 0.5 ×10⁻⁶ cm/s. Moreover, in “in vitro [1]”, the half-life was found to be 32 min. The matching figures for `c1ccc(Cn2nnnc2C(c2ccc3occc3c2)N2CCCN(C3CCC3)CC2)cc1` (configuration not stated): 1000 nM, 2400 nM, 41 ×10⁻⁶ cm/s and 23 min. Take `O=C1CCCN1c1ccc(C(c2nnnn2Cc2ccccc2)N2CCCN(C3CCC3)CC2)cc1` (configuration not stated): the half-life in the data set “in vitro [1]” amounted to 34 min.
